Each structure is given as a SMILES string. pEC50: −log10 of the molar value.

Data set [1] can be described thus: toxicity in mice (Table 5). To be noted: mouse, in vivo. The text has this:
In vivo models of cancer growth include xenografts of human tumor cells injected into animals, such as mice, particularly immunocomprimised mice. Toxicity of the compounds can also be assessed in these assays through daily administration of the compounds to the animals combined with daily monitoring of the animals. The animals can also be monitored for two weeks to look for weight loss, as well as other common toxicities known to one skilled in the art, such as altered grooming, decreased movement of mice, and tremor. The compounds can also be tested for their ability to inhibit tumor growth in animals. SVR angiosarcoma tumor cells, for example, can be injected into animals, such as immunocompromised mice. Mice can be injected with approximately one million SVR cells subcutaneously, and when tumors become palpable, can be treated with a beginning dose (such as 120 mg/kg intraperitoneally) once daily. Drugs that are active at 120 mg/kg can then be retested at lower doses of 80 mg/kg, 40 mg/kg, etc. Tumor volume can be calculated using the formula (w2×L)0.52, where w (width) represents the smallest dimension of the tumor. Mice can be treated for a period of time such as approximately 30 days, or until tumor growth reaches 1 cm^3.

Data set [2] deals with SVR (a transformed endothelial cell line). The data set is described as follows: SVR cellular proliferation assay. In kind it is cell-based. To be noted: Mus musculus, SVR cells; for inhibition at 10 µg/mL: 10 μg/mL; for inhibition at 15 µg/mL: 15 μg/mL. The procedure:
The SVR (a transformed endothelial cell line) proliferation assay can be used as a direct measure of antiangiogenic and antitumor activity. This assay serves as a high throughput screen that compares the effects of a compound on proliferation of SVR cells versus an immortalized endothelial cell line, MS1. […] SVR cells were plated in 24-well dishes. The next day, the medium was replaced with fresh medium containing the inhibitors or vehicle controls. Cells were incubated at 37° C. for 72 h (Arbiser, J. L., et al. 1999 J. Am. Acad. Dermatol. 40, 925-929; LaMontagne, K. R., et al. 2000 Am. J. Pathol. 157, 1937-1945), and cell number was determined in triplicate using a Coulter Counter (Hialeah, Fla.). Immortalized and K-Ras transformed rat epithelial cells (RIEpZip and […]) and fibroblasts (NIH3T3 pZip and NIH3T3 pZipK-Ras12V) were maintained at 37° C., 10% CO2, in Dulbecco's modified Eagle's medium supplemented with 5% fetal calf serum (RIE) or 10% calf serum (NIH3T3) (Oldham, S. M., et al. 1996 Proc. Natl. Acad. Sci. U.S.A. 93, 6924-6928; Pruitt, K., et al. 2000 J. Biol. Chem. 275, 40916-40924). Cells were plated at 10^5/well in six-well plates.

The subject of data set [3] is HIV-1. The experiment in a line: HIV assay in PBM cells (RT activity). In kind it is cell-based. To be noted: HIV-1 in human PBM cells. The procedure:
The antiviral activity of the synthesized compounds and honokiol were evaluated against HIV-1 in human peripheral blood mononuclear (PBM) cells (Table 4).
Human peripheral blood mononuclear (PBM) cells (which can be obtained from Atlanta Red Cross) can be isolated by Ficoll-Hypaque discontinuous gradient centrifugation from healthy seronegative donors. Cells can be stimulated with phytohemagglutinin A (Difco, Sparks, Md.) for 2-3 days prior to use. HIV-1, such as HIV-1LAI can be obtained from the Centers for Disease Control and Prevention (Atlanta, Ga.), and can be used as the standard reference virus for the antiviral assays. The molecular infectious clones HIV-1xxBru and HIV-1M184Vpin can be obtained from Dr. John Mellors (University of Pittsburgh). Infections can be done in bulk for one hour, either with 100 TCID50/1×10^7 cells for a flask (T25) assay or with 200 TCID50/6×10^5 cells/well for a 24 well plate assay. Cells can be added to a plate or flask containing a ten-fold serial dilution of the test compound. Assay medium can be RPMI-1640 supplemented with heat inactivated 16% fetal bovine serum, 1.6 mM L-glutamine, 80 IU/ml penicillin, 80 μg/ml streptomycin, 0.0008% DEAE-Dextran, 0.045% sodium bicarbonate, and 26 IU/ml recombinant interleukin-2 (Chiron Corp, Emeryville, Calif.). AZT can be used as a positive control for the assay. Untreated and uninfected PBM cells can be grown in parallel at equivalent cell concentrations as controls. The cell cultures can be maintained in a humidified 5% CO2-air at 37° C. for 5 days and supernatants can be collected for reverse transcriptase (RT) activity.
Supernatants can be centrifuged at 12,000 rpm for 2 hours to pellet the virus. The pellet can be solubilized with vortexing in 100 μl virus solubilization buffer (VSB) containing 0.5% Triton X-100, 0.8 M NaCl, 0.5 mM phenylmethylsulfonyl fluoride, 20% glycerol, and 0.05 M Tris, pH 7.8. Ten μL of each sample can be added to 75 μL RT reaction mixture (0.06 M Tris, pH 7.8, 0.012 M MgCl2, 0.006 M dithiothreitol, 0.006 mg/ml poly (rA)n, oligo (dT)12-18, 96 μg/ml dATP, and 1 μM of 0.08 mCi/ml ^3H-thymidine triphosphate (Moravek Biochemicals, Brea, Calif.) and can be incubated at 37° C. for 2 hours. The reaction can be stopped by the addition of 100 μL 10% trichloroacetic acid containing 0.05% sodium pyrophosphate. The acid insoluble product can be harvested onto filter paper using a Packard Harvester (Meriden, Conn.), and the RT activity can be read on a Packard Direct Beta Counter (Meriden, Conn.). The RT results can be expressed in counts per minute (CPM) per milliliter. The antiviral 50% effective concentration (EC50) and 90% effective concentration (EC90) can be determined from the concentration-response curve using the median effect method (Belen'kii, S. M.; Schinazi, R. S. Multiple drug effect analysis with confidence interval. Antiviral. Res. 1994, 25, 1-11).

The test system of data set [4] is PBM cells. The experiment in a line: cytotoxicity assay (MTT). In kind it is cell-based, human. The procedure: (§1) The cytotoxicity of the honokiol and analogues thereof were assessed in human PBM, CEM and Vero cells (Table 4). Compounds can be evaluated for their potential toxic effects on uninfected human PBM cells, in CEM (T-lymphoblastoid cell line obtained from American Type Culture Collection, Rockville, Md.) and Vero (African green monkey kidney) cells. PBM cells can be obtained from whole blood of healthy seronegative donors (HIV-1) by single-step Ficoll-Hypaque discontinous gradient centrifugation. […] All of the cells can be plated in 96-well cell culture plates containing ten-fold serial dilutions of the test drug. […] At the end of incubation, MTT tetrazolium dye solution (Cell titer 96®, Promega, Madison, Wis.) can be added to each well and incubated overnight. The reaction can be stopped with stop solubilization solution (Promega, Madison, Wis.). […] The plates can be read at a wavelength of 570 nm using an ELISA plate reader (Bio-tek instruments, Inc., Winooski, Vt., Model #EL 312e). The 50% inhibition concentration (IC50) can be determined from the concentration-response curve using the median effect method.

In data set [5] the test system is CEM (T-lymphoblastoid cell line). The experiment in a line: cytotoxicity assay (MTT). In kind it is cell-based. The procedure: as §1

In the case of `C=CCc1cc(-c2ccc(O)c(CC=C)c2)ccc1O` [drawing 56], in data set [1], the Toxicity result is reported as “Toxic”. Also, in data set [2], the inhibition at 10 µg/mL was found to be 44.9% and the inhibition at 15 µg/mL was 56.2%.
In the case of `Cc1cn([C@H]2C[C@H](N=[N+]=[N-])[C@@H](CO)O2)c(=O)[nH]c1=O` [AZT, reference compound], the pEC50 in data set [3] (read-out: Activity anti-VIH-1 on PBM cells EC50) is 7.85; in data set [4], below 4.00; in data set [5], 4.84. In data set [3] (read-out: Activity anti-VIH-1 on PBM cells EC90), the EC90 amounted to 49 nM.
Take `C=CCC1=C(CC=C)C(=O)c2ccccc2C1=O`: the Toxicity result in data set [1] is listed as “Toxic”. In data set [2], this compound displayed an inhibition at 10 µg/mL of 87.5% and an inhibition at 15 µg/mL of 91.5%.
On to `C=CCc1cc(/C(CC)=C(\CC)c2ccc(O)c(CC=C)c2)ccc1O`, for which the Toxicity result in data set [1] is on record as “Toxic”. In data set [2], this compound came in with an inhibition at 10 µg/mL of 68.4% and an inhibition at 15 µg/mL of 89.3%.
The corresponding values for `C=CCc1cc(Cc2ccc(O)c(CC=C)c2)ccc1O` are “Toxic”, 75.5% and 73.7%.

For orientation: inhibition means the change of the read-out against control, counted positive when it falls. A higher inhibition goes with a strong effect. A word on the pEC50: it is the EC50 on a negative log10 scale, so that one unit is a factor of ten. A word on the EC90: it is the concentration needed for an effect of 90%.

The values are drawn from US20080300298A1, “Honokiol Derivates For the Treatment of Proliferative Disorders” (priority 2005, published 2008).
